What all share (type): cell-based
One data set has as its system HCV. Description: Anti-HCV activity (HCV replicon assay). Particulars: Hepatitis C virus. The protocol:
(§1) Antiviral activity against HCV is determined using the stably-expressing HCV replicon cell line, AVA5 (sub-genomic (CON1), genotype 1b) (Okuse, et al., Antivir. Res. 65:23 (2005); Korba, et al., Antivir. Res. 77:56 (2008); Blight, et al., Science 290:1972 (2000)). Reductions in intracellular HCV RNA are determined with respect to a cellular control (B-actin) by blot hybridization. Cytotoxicity is assessed by neutral red dye uptake in parallel plates.
Efficacy and cell cytotoxicity values (EC50, EC90 and CC50) are calculated by linear regression analysis (MS EXCEL®, QuattroPro®) (Korba & Gerin, Antivir. Res. 19:55 (1992); Okuse, et al., Antivir. Res. 65:23 (2005)). The therapeutic index is calculated as CC50/EC50. Recombinant human interferon 2b (PBL laboratories, Inc.) is included as a positive control. Activity is subsequently tested against additional genotypes (e.g., genotype 1a) using the format described for the primary assay. In addition to antiviral assays described herein, several other types of anti-HCV activities can also be assessed using methods known to one of ordinary skill in the art. […]

The nature of a further data set: MT4 Cell Toxicity Assay. Particulars: human. The method, then: Cells used: MT4 cells were obtained from NIH AIDS research & Reference Reagent Program. Cells were used up to passage 30.
Toxicity assay using MTS: 5,000 MT4 cells were plated per well in a 96-well plate. Compounds were diluted in DMSO and further diluted with medium before adding to the plated cells. Plates were then incubated in a CO2 incubator at 37° C. for 6 days.
Cell viability was estimated using MTS, a tetrazolium compound [3-(4,5-dimethylthiazol-2-yl)-5-(3-carboxymethoxyphenyl)-2-(4-sulfophenyl)-2H-tetrazolium], which is converted to a soluble formazan by mitochondrial dehydrogenases in the presence of an electron coupling reagent (phenazine methosulfate; PMS). The formazan product has an absorption maximum around 490 nm. Forty microliters of MTS reagent [MTS (2 mg/ml) and PMS (0.92 mg/ml) mixed at a ratio of 20:1 just before use] was added to each well and plates incubated for 4 hrs at 37° C. Absorbance was read at 490 nm using a Synergy 2 plate reader (BioTek). Data analysis was carried out using the BioTek Gen5 software using a 4-parameter curve fitting function to determine CC50 values.

The nature of data set [1]: Cytotoxicity (CC50) in parallel plates of the anti-HCV assay. As to conditions: human. The protocol: as §1
Efficacy and cell cytotoxicity values (EC50, EC90 and CC50) are calculated by linear regression analysis (MS EXCEL®, QuattroPro®) (Korba & Gerin, Antivir. Res. 19:55 (1992); Okuse, et al., Antivir. Res. 65:23 (2005)). The therapeutic index is calculated as CC50/EC50. Recombinant human interferon 2b (PBL laboratories, Inc.) is included as a positive control. Activity is subsequently tested against additional genotypes (e.g., genotype 1a) using the format described for the primary assay. In addition to antiviral assays described herein, several other types of anti-HCV activities can also be assessed using methods known to one of ordinary skill in the art.

The next data set has as its system HepG2 cells. Description: Mitochondrial Biogenesis Assay. Particulars: 7 days, ratio of Complex IV to Frataxin. The protocol:
Cells used: HepG2 cells were obtained from ATCC. Cells are used up to 25 passages from the ATCC freeze.
Mitochondria Biogenesis Assay using HepG2 cells: 150,000 HepG2 cells were plated per well in a 6-well plate. Compounds were diluted in DMSO and further diluted in the plated cells so as to give a top concentration of 50 μM. Five four-fold dilutions were tested in this assay format. Plates were then incubated in a CO2 incubator at 37° C. for 7 days. Medium containing fresh compound was changed on day 3 and 6 of the assay. Cells were harvested on day 7 of the assay.
On day 7, cells were rinsed with 1×DPBS three times and scraped off into 1×DPBS and held on ice. Whole cell protein estimation was determined to make sure that the cells are suspended at a protein concentration of 3-5 mg/ml.
Cells were lysed on ice by addition of 1:10 volume of diluted detergent (MitoSciences) so as to have a final detergent concentration of 2%. Cells were held on ice for 1 hr and then centrifuged at ˜20K×g for 20 min. The supernatant fraction was used for determining solubilized Frataxin and Complex IV using an ELISA kit from MitoSciences. The ratio of Complex IV to Frataxin was used to determine mitochondrial toxicity. DMSO controls were run to determine ratio of Frataxin and Complex IV in control cells. ddC was run as a positive control in the assay.

The mark [2] stands for this setting: anti-HCV activity, read-out: EC50.
[3] abbreviates: AVA5 HCV replicon cells (sub-genomic CON1, genotype 1b).
[4] abbreviates: MT4 cells, 6 days, MTS, read-out: MT-4 (TC50).

pEC50: −log10 of the molar value. Read-outs that look alike come from different tables or passages of the source.

On to `CC(C)=CCNc1ncnc2c1c(/C(N)=N\O)cn2[C@@H]1O[C@H](CO)[C@@H](O)[C@H]1O` [Compound a], for which the pEC50 with HCV (setting [2]) is over 7.00. Moreover, in the data set “MT4 Cell Toxicity Assay” (MT-4 (TC50) (μM)), the CC50 at 6 days is over 100 µM. Further, the CC50 in data set [1] (setting [3]) is under 1000 nM. Also, the “Mitotoxicity (μM)” value in the data set with HepG2 cells is “* (up to 20 μM)”.
The matching figures for `CCCCCCCCCCCCCCCCOCCCOP(=O)(O)OC[C@H]1O[C@@H](n2cc(C#N)c3c(N)ncnc32)[C@H](O)[C@@H]1O` [Compound b]: over 7.00, under 1 µM, under 1000 nM and “* (up to 20 μM)”.
Compound `C[C@@]1(F)[C@H](O)[C@@H](CO)O[C@H]1n1cc(Br)c2c(N)ncnc21` [Compound c] returned a CC50 in data set [1] (setting [3]) of 20000 to 100000 nM.
For the compound `C[C@]1(O)C(n2cc(C(N)=S)c3c(N)ncnc32)O[C@H](CO)[C@H]1O` (stereo partly drawn) [Compound d], the pEC50 with HCV (setting [2]) is 5.30 to 6.00. For the same compound, the CC50 at 6 days in “MT4 Cell Toxicity Assay” (MT-4 (TC50) (μM)) fell in the range of 1 to 20 µM. For the same compound, the “Mitotoxicity (μM)” value in the data set on HepG2 cells was “* (up to 20 μM)”.
In data set [1] (setting [3]), `CNC(=O)c1csc(-c2cn([C@@H]3O[C@H](CO)[C@@H](O)[C@@]3(C)O)c3ncnc(N)c23)c1` [Compound e] displayed a CC50 of 20000 to 100000 nM.
Turning to `C[C@@]1(F)[C@H](O)[C@@H](CO)O[C@H]1n1cc(-c2cccs2)c2c(N)ncnc21` [Compound f], the pEC50 in the data set with HCV (setting [2]) is under 5.30. For the same compound, the “Mitotoxicity (μM)” value in the data set with HepG2 cells is listed as “* (up to 20 μM)”.
In the data set on HCV, `COC(=O)[C@H](C)NP(=O)(OC[C@H]1O[C@@H](n2cc(C(N)=S)c3c(N)ncnc32)[C@H](O)[C@@H]1O)Oc1ccccc1` (stereo partly drawn) [Compound g] showed a pEC50 of over 7.00. In addition, in the data set “MT4 Cell Toxicity Assay” (setting [4]), the CC50 at 6 days was under 1 µM. Besides, in data set [1], the CC50 is under 1000 nM.
Take `CCCCCCCCCCCCCCCCOCCCOP(=O)(O)OC[C@H]1O[C@@H](n2cc(C(N)=S)c3c(N)ncnc32)[C@H](O)[C@@H]1O` [Compound h]: in the data set with HCV (setting [2]), the pEC50 is over 7.00. Moreover, the CC50 at 6 days in “MT4 Cell Toxicity Assay” (MT-4 (TC50) (μM)) is under 1 µM. Besides, the CC50 in data set [1] (setting [3]) was under 1000 nM.
On to `C[C@@]1(O)[C@H](O)[C@@H](CO)O[C@H]1n1cc(C#N)c2c(N)ncnc21` [Compound j], for which the negative logarithm of the EC50 (pEC50) with HCV (setting [2]) was 6.00 to 7.00. The CC50 at 6 days in “MT4 Cell Toxicity Assay” (MT-4 (TC50) (μM)) lay within 20 to 100 µM. Also, the “Mitotoxicity (μM)” value with HepG2 cells was “** (20-50 μM)”.
As for `COC(=O)[C@H](C)NP(=O)(OC[C@H]1O[C@@H](n2cc(C(N)=S)c3c(N)ncnc32)[C@](C)(O)[C@@H]1O)Oc1ccccc1` (stereo partly drawn) [Compound k], the pEC50 in the data set with HCV is 6.00 to 7.00. Moreover, the CC50 at 6 days in “MT4 Cell Toxicity Assay” (setting [4]) was 20 to 100 µM. In data set [1], this compound showed a CC50 of 1000 to 20000 nM. In addition, in the data set with HepG2 cells, the “Mitotoxicity (μM)” value was “* (up to 20 μM)”.
With `[N-]=[N+]=N[C@H]1C(O)C(CO)OC1n1cc(C(N)=S)c2c(N)ncnc21` (stereo partly drawn) [Compound l], the pEC50 in the data set with HCV (setting [2]) is 6.00 to 7.00. Moreover, the CC50 at 6 days in the data set “MT4 Cell Toxicity Assay” (MT-4 (TC50) (μM)) is over 100 µM. The CC50 in data set [1] (setting [3]) is 1000 to 20000 nM. For the same compound, the “Mitotoxicity (μM)” value in the data set with HepG2 cells is recorded as “*** (50-80 μM)”.
As for `COC(=N)c1cn(CC2(F)COC(CO)C2O)c2ncnc(N)c12` (stereo not drawn) [Compound m], the negative logarithm of the EC50 (pEC50) in the data set on HCV (setting [2]) was under 5.30. Besides, the CC50 at 6 days in the data set “MT4 Cell Toxicity Assay” (MT-4 (TC50) (μM)) is 20 to 100 µM.
`CC(C)CCNc1ncnc2c1c(C(=N)NO)cn2[C@@H]1O[C@H](CO)[C@@H](O)[C@H]1O` [Compound n]: the pEC50 in the data set on HCV (setting [2]) was 5.30 to 6.00. The CC50 at 6 days in the data set “MT4 Cell Toxicity Assay” (MT-4 (TC50) (μM)) is over 100 µM. In addition, the CC50 in data set [1] (setting [3]) lay within 1000 to 20000 nM.
For the compound `CNC(=O)c1csc(-c2cn([C@@H]3O[C@H](CO)[C@@H](O)[C@H]3O)c3ncnc(N)c23)c1` [Compound o], the pEC50 in the data set with HCV (setting [2]) is 5.30 to 6.00. This compound also gave a CC50 in data set [1] (setting [3]) of 20000 to 100000 nM.
As for `NC(=S)c1cn(C2O[C@H](CO)[C@@H](O)[C@H]2O)c2ncnc(N)c12` (stereo partly drawn) [Compound p], in the data set with HCV, the pEC50 is over 7.00. Besides, the CC50 at 6 days in the data set “MT4 Cell Toxicity Assay” (setting [4]) was under 1 µM. The same compound yielded a CC50 in data set [1] of under 1000 nM. Also, the “Mitotoxicity (μM)” value with HepG2 cells is “* (up to 20 μM)”.
In the case of `CCCCCCCCCCCCCCCCOCCCOP1(=O)OC[C@H]2O[C@@H](n3cc(C(N)=S)c4c(N)ncnc43)[C@H](O)[C@@H]2O1` (stereo partly drawn) [Compound q], the negative logarithm of the EC50 (pEC50) with HCV (setting [2]) is over 7.00. The CC50 at 6 days in “MT4 Cell Toxicity Assay” (MT-4 (TC50) (μM)) is under 1 µM. In data set [1] (setting [3]), the CC50 was in the range of 1000 to 20000 nM.
Consider `Nc1ncnc2c1c(Br)cn2[C@@H]1O[C@H](CO)[C@@H](O)[C@H]1O` [Compound r], for which the negative logarithm of the EC50 (pEC50) in the data set with HCV (setting [2]) was 5.30 to 6.00. In the data set “MT4 Cell Toxicity Assay” (MT-4 (TC50) (μM)), the CC50 at 6 days lay within 1 to 20 µM.

As usually defined, the pEC50 is the negative decadic logarithm of the EC50, by convention in mol/L.

The values are drawn from patent publication US20100297079A1, “COMPOUNDS, COMPOSITIONS AND METHODS FOR TREATING VIRAL INFECTION” (Chimerix, Inc., priority 2009, published 2010).
